The results in this text go back to patent US10077261B2, “Imidazolin-5-one derivative useful as FASN inhibitors for the treatment of cancer” (Janssen Pharmaceutica NV, priority 2012, dated 2018).

For assay [1], the system named is A2780 ovarian cells. As to the kind of experiment: A2780 ovarian cell proliferation assay in lipid reduced medium, without palmitate (MTT). The class given is cell-based. To be noted: Homo sapiens, A2780, 96 h; read-out: pIC50 A2780 Ovarian Cell, Without Palmitate (converted).
For assay [2], the target named is T1, hFASN enzyme (full length) (Homo sapiens, UniProt P49327).
T1 construct: 10 μL hFASN enzyme (full length, 300 ng, purified in house); made in house
Nature of the assay: Fatty Acid Synthase (FASN) inhibition scintillation proximity assay. The class given is biochemical. As to conditions: for inhibition at 10 µM: read-out: Human FASN % inhibition @ 10 μM, 10 μM test compound; for IC50: read-out: Human FASN pIC50 (converted). The essentials:
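Purified full-length hFASN (300 ng) converts ^3H-acetyl-CoA plus malonyl-CoA to ^3H-palmitate in 100 mM KH2PO4 pH 7.5, 1 mM DTT; compounds tested at 0.01–30 μM. Product captured on streptavidin imaging beads and read by LEADseeker at 610 nm after ≥24 h; 4-parameter logistic fit versus controls.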
A general note: SPA uses beads or plates that emit light when radiolabelled molecules are held near them.

For assay [3], the target named is Fatty Acid Synthase Keto-reductase Domain (FASN KR) (Homo sapiens, UniProt P49327). As to the kind of experiment: Fatty Acid Synthase keto-reductase domain (FASN KR) inhibition, NADPH oxidation at 340 nm.
Experimental: After 20 minutes incubation at room temperature the plate was measured again (T2).
The decrease in absorbance was calculated as (Absorbance before incubation T1)−(Absorbance following incubation T2).
A plot of Controlmin versus test compound concentration was fitted to a 4-parameter logistic curve using a non-linear least squares regression method.
Assay [4] concerns A2780 ovarian cells. As to the kind of experiment: A2780 ovarian cell proliferation assay in lipid reduced medium, with palmitate (MTT). The class given is cell-based. To be noted: Homo sapiens, A2780, 96 h; read-out: pIC50 A2780 Ovarian Cell, With Palmitate (converted). The method in brief: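 Seeded cells were switched next day to lipid-reduced serum, exposed to compound and 25 μM palmitate complexed with fatty-acid-free BSA, and incubated 96 h. Proliferation was then determined by MTT absorbance at 544 nm, with a best-fit curve of signal against concentration.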

Molecules are shown by their SMILES.

T1 sequence (P49327 whole entry): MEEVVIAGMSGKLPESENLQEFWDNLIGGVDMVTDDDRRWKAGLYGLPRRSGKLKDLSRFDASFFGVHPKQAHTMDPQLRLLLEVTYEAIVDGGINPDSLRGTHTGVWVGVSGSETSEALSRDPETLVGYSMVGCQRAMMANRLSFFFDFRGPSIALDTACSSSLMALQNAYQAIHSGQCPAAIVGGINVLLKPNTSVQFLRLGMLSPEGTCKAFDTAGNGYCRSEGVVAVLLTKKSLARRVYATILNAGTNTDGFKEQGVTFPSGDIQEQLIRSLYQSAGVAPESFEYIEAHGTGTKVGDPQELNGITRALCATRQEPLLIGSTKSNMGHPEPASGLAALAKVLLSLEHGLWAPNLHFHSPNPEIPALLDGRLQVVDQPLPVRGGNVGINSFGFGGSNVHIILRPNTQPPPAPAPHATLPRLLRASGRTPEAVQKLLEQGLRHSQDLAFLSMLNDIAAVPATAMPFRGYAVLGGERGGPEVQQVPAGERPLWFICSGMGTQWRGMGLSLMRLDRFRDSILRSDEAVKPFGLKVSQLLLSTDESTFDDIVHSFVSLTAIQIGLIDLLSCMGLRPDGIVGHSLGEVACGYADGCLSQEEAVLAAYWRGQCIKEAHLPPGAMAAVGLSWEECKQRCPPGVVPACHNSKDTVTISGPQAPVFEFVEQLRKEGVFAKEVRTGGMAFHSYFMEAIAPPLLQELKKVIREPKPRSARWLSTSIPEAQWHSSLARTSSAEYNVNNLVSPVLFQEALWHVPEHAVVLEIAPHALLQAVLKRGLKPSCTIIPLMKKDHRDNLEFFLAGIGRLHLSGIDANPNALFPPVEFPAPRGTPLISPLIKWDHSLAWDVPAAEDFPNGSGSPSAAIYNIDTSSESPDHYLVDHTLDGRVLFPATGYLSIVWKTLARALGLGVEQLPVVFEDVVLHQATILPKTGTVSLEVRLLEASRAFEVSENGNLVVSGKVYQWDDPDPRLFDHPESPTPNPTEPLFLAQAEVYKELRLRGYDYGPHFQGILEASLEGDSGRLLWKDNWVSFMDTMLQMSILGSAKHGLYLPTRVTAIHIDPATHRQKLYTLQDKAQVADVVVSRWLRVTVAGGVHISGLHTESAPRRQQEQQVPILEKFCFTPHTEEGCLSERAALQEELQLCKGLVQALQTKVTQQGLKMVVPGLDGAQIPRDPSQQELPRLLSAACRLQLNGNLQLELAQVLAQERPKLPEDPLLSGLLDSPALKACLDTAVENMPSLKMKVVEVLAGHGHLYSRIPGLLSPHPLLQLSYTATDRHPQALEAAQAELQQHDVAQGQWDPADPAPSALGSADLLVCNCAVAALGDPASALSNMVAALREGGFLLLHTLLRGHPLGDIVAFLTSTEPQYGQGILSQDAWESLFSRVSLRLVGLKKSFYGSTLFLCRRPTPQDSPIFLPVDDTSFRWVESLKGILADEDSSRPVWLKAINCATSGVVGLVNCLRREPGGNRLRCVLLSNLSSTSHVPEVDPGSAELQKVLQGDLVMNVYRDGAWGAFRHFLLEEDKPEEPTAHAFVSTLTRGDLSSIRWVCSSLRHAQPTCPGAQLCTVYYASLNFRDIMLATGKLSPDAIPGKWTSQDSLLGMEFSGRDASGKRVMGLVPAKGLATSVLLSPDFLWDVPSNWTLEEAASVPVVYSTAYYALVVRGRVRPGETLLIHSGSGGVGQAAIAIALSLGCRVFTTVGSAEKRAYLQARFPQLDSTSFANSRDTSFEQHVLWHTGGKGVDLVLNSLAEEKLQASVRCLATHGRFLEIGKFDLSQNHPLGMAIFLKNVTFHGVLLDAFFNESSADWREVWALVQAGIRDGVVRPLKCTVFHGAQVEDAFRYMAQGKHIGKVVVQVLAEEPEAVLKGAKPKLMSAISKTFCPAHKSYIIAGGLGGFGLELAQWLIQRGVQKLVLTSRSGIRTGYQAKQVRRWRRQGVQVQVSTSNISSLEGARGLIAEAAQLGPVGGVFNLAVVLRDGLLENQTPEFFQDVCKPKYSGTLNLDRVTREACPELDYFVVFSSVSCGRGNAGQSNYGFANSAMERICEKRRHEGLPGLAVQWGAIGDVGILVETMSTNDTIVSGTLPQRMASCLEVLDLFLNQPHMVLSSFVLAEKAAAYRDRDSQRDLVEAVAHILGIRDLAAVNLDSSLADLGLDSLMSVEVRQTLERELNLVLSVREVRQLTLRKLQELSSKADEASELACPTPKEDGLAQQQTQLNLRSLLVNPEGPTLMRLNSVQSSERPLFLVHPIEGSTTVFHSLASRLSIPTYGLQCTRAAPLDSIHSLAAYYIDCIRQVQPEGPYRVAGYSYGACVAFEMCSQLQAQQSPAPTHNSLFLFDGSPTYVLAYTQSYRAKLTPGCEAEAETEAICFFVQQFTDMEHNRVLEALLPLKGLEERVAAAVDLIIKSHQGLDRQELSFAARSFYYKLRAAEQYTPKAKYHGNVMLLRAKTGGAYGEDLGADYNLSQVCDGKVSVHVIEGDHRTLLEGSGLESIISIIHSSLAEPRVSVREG
Chain of Fatty Acid Synthase Keto-reductase Domain (FASN KR) (P49327 whole entry, the tested form may be a part): as the sequence (P49327 whole entry) above

Take `N#Cc1ccc(-c2ccc(C3=NC4(CCCC4)C(=O)N3C[C@@H]3CCN(C(=O)C4CC4)C3)cc2)cc1` [compound 1, 4′-(3-{[(3R)-1-(Cyclopropylcarbonyl)pyrrolidin-3-yl]methyl}-4-oxo-1,3-diazaspiro[4.4]non-1-en-2-yl)biphenyl-4-carbonitrile]: the IC50 is 1.12 µM with A2780 ovarian cells [1], 0.575 µM in assay [2], 0.759 µM in assay [3] and greater than 10 µM with A2780 ovarian cells [4]. Also, the inhibition (in general, the change of the read-out against control, counted positive when it falls) at 10 µM in assay [2] stood at 93%.

In the case of `CCCc1ccc(-c2ccc(C3=NC4(CC4)C(=O)N3CC3CN(C(=O)C4CC4)C3)cc2)cn1` [compound 795, 6-((1-(cyclopropanecarbonyl)azetidin-3-yl)methyl)-5-(4-(6-propylpyridin-3-yl)phenyl)-4,6-diazaspiro[2.4]hept-4-en-7-one], the IC50 (in the assay on A2780 ovarian cells [1]; in assay [2]; with A2780 ovarian cells [4]) was greater than 10 µM throughout. In addition, in assay [2], the inhibition at 10 µM was 34%.

As to `COC(=O)N1CC2(C1)N=C(c1ccc(-c3ccc(-c4cnn(C)c4)cc3)cc1)N(C[C@@H]1CCN(S(C)(=O)=O)C1)C2=O` [compound 891, (S)-methyl 6-(4′-(1-methyl-1H-pyrazol-4-yl)-[1,1′-biphenyl]-4-yl)-7-((1-(methylsulfonyl)pyrrolidin-3-yl)methyl)-8-oxo-2,5,7-triazaspiro]3.4[ovt-5-ene-2-carboxylate], the IC50 (in the assay with A2780 ovarian cells [1]; in assay [2]; with A2780 ovarian cells [4]) was greater than 10 µM each time. Also, the inhibition at 10 µM in assay [2] came to 8%.

Consider `CS(=O)(=O)N1CCC(CN2C(=O)C3(CCOC3)N=C2c2ccc(-c3ccc4cccnc4c3)cc2)C1` (stereo not shown) [compound 896, 3-((1-(methylsulfonyl)pyrrolidin-3-yl)methyl)-2-(4-(quinolin-7-yl)phenyl)-7-oxa-1,3-diazaspiro[4.4]non-1-en-4-one], for which the IC50 (with A2780 ovarian cells [1]; in assay [2]; in the assay with A2780 ovarian cells [4]) was greater than 10 µM throughout. Also, the inhibition at 10 µM in assay [2] worked out at 10%.

In the case of `O=C(N1CC(CN2C(=O)C3(CCOC3)N=C2c2ccc(-c3ccc4occc4c3)cc2)C1)C(F)(F)F` (stereo not shown) [compound 897, 2-(4-(benzofuran-5-yl)phenyl)-3-((1-(2,2,2-trifluoroacetyl)azetidin-3-yl)methyl)-7-oxa-1,3-diazaspiro[4.4]non-1-en-4-one], the IC50 (in the assay with A2780 ovarian cells [1]; in assay [2]; in the assay with A2780 ovarian cells [4]) was greater than 10 µM each time. In addition, in assay [2], the inhibition at 10 µM was determined as 15%.

Take `CS(=O)(=O)N1CC(CN2C(=O)C3(CCOC3)N=C2c2ccc(-c3ccc4occc4c3)cc2)C1` (stereo not shown) [compound 898, 2-(4-(benzofuran-5-yl)phenyl)-3-((1-(methylsulfonyl)azetidin-3-yl)methyl)-7-oxa-1,3-diazaspiro[4.4]non-1-en-4-one]: the IC50 (in the assay on A2780 ovarian cells [1]; in assay [2]; with A2780 ovarian cells [4]) was greater than 10 µM each time. Moreover, the inhibition at 10 µM in assay [2] is 6%.

Take `Cn1cc(-c2ccc(-c3ccc(C4=NC5(CCOC5)C(=O)N4CC4CN(C(=O)C(F)(F)F)C4)cc3)cc2)cn1` (stereo not shown) [compound 899, 2-(4′-(1-methyl-1H-pyrazol-4-yl)-[1,1′-biphenyl]-4-yl)-3-((1-(2,2,2-trifluoroacetyl)azetidin-3-yl)methyl)-7-oxa-1,3-diazaspiro[4.4]non-1-en-4-one]: the IC50 (with A2780 ovarian cells [1]; in assay [2]; in the assay with A2780 ovarian cells [4]) was greater than 10 µM each time. Also, the inhibition at 10 µM in assay [2] is -10%.

As to `COC(=O)N1CC2(C1)N=C(c1ccc(-c3ccc4cccnc4c3)cc1)N(C[C@@H]1CCN(S(C)(=O)=O)C1)C2=O` [compound 900, (S)-methyl 7-((1-(methylsulfionyl)pyrrolidin-3-yl)methyl)-8-oxo-6-(4-(quinolin-7-yl)phenyl)-2,5,7-triazaspiro[3.4]oct-5-ene-2-carboxylate], the IC50 (with A2780 ovarian cells [1]; in assay [2]; in the assay on A2780 ovarian cells [4]) was greater than 10 µM in each case. In addition, in assay [2], the inhibition at 10 µM worked out at 9%.

For `Cn1cc(-c2ccc(-c3ccc(C4=NC5(CCOCC5)C(=O)N4C[C@@H]4CCN(S(C)(=O)=O)C4)cc3)cc2)cn1` [compound 918, (S)-2-(4′-(1-metrhyl-1H-pyrazol-4-yl)-[1,1′-biphenyl]-4-yl)-3-((1-(methylsulfonyl)pyrrolidin-3-yl)methyl)-8-oxa-1,3-diazaspiro[4.5]dec-1-en-4-one], the IC50 (with A2780 ovarian cells [1]; in assay [2]; with A2780 ovarian cells [4]) was greater than 10 µM each time. Also, in assay [2], the inhibition at 10 µM came to 2%.

In the case of `COC(=O)N1CC(CN2C(=O)C3(CCOCC3)N=C2c2ccc(-c3ccc4cccnc4c3)cc2)C1` [compound 922, methyl 3-((4-oxo-2-(4-(quinolin-7-yl)phenyl)-8-oxa-1,3-diazaspiro[4.5]dec-1-en-3-yl)methyl)azetidine-1-carboxylate], the IC50 (in the assay with A2780 ovarian cells [1]; in assay [2]; in the assay on A2780 ovarian cells [4]) was greater than 10 µM each time. Moreover, in assay [2], the inhibition at 10 µM is 38%.

As to `COC(=O)N1CC2(C1)N=C(c1ccc(-c3ccc4c(cnn4C)c3)cc1)N(C[C@@H]1CCN(C(=O)c3nccs3)C1)C2=O` [compound 923, (R)-methyl 6-(4-(1-methyl-1H-indazol-5-yl)phenyl)-8-oxo-7-((1-(thiazole-2-carbonyl)pyrrolidin-3-yl)methyl)-2,5,7-triazaspiro[3.4]oct-5-ene-2-carboxylate], the IC50 (in the assay with A2780 ovarian cells [1]; in assay [2]; with A2780 ovarian cells [4]) was greater than 10 µM each time. Moreover, in assay [2], the inhibition at 10 µM amounted to 27%.

As for `Cn1ncc2cc(-c3ccc(C4=NC5(CCOC5)C(=O)N4CC4CN(C(=O)C(F)(F)F)C4)cc3)ccc21` (stereo not shown) [compound 937, 2-(4-(1-methyl-1H-indazol-5-yl)phenyl)-3-((1-(2,2,2-trifluoroacetyl)azetidin-3-yl)methyl)-7-oxa-1,3-diazaspiro[4.4]non-1-en-4-one], the IC50 (in the assay with A2780 ovarian cells [1]; in assay [2]; in the assay with A2780 ovarian cells [4]) was greater than 10 µM in each case. Besides, in assay [2], the inhibition at 10 µM was -9%.

With `O=C(N1CCC(CN2C(=O)C3(CCOC3)N=C2c2ccc(-c3ccc4occc4c3)cc2)C1)C(F)(F)F` (stereo not shown) [compound 938, 2-(4-(benzofuran-5-yl)phenyl)-3-((1-(2,2,2-trifluoroacetyl)pyrrolidin-3-yl)methyl)-7-oxa-1,3-diazaspiro[4.4]non-1-en-4-one], the IC50 in the assay with A2780 ovarian cells [1] was 7.94 µM; in assay [2] it was greater than 10 µM; with A2780 ovarian cells [4] it was greater than 10 µM. Besides, the inhibition at 10 µM in assay [2] was determined as 43%.

In the case of `Cn1cc(-c2ccc(-c3ccc(C4=NC5(CCOC5)C(=O)N4CC4CCN(S(C)(=O)=O)C4)cc3)cc2)cn1` (stereo not shown) [compound 939, 2-(4′-(1-methyl-1H-pyrazol-4-yl)-[1,1′-biphenyl]-4-yl)-3-((1-(methylsulfonyl)pyrrolidin-3-yl)methyl)-7-oxa-1,3-diazaspiro[4.4]non-1-en-4-one], the IC50 (in the assay with A2780 ovarian cells [1]; in assay [2]; in the assay with A2780 ovarian cells [4]) was greater than 10 µM throughout. In addition, the inhibition at 10 µM in assay [2] was 2%.

Consider `Cn1cc(-c2ccc(-c3ccc(C4=NC5(CCOC5)C(=O)N4CC4CCN(C(=O)C(F)(F)F)C4)cc3)cc2)cn1` (stereo not shown) [compound 940, 2-(4′-(1-methyl-1H-pyrazol-4-yl)-[1,1′-biphenyl]-4-yl)-3-((1-(2,2,2-trifluoroacetyl)pyrrolidin-3-yl)methyl)-7-oxa-1,3-diazaspiro[4.4]non-1-en-4-one], for which the IC50 (in the assay on A2780 ovarian cells [1]; in assay [2]; in the assay with A2780 ovarian cells [4]) was greater than 10 µM each time. In addition, the inhibition at 10 µM in assay [2] was 33%.

Take `Cn1cc(-c2ccc(-c3ccc(C4=NC5(CCOC5)C(=O)N4CC4CCN(C(=O)c5nccs5)C4)cc3)cc2)cn1` (stereo not shown) [compound 943, 2-(4′-(1-methyl-1H-pyrazol-4-yl)-[1,1′-biphenyl]-4-yl)-3-((1-(thiazole-2-carbonyl)pyrrolidin-3-yl)methyl)-7-oxa-1,3-diazaspiro[4.4]non-1-en-4-one]: the IC50 (in the assay on A2780 ovarian cells [1]; in assay [2]; in the assay on A2780 ovarian cells [4]) was greater than 10 µM each time. Moreover, the inhibition at 10 µM in assay [2] worked out at 9%.

`COC(=O)N1CC2(C1)N=C(c1ccc(-c3ccc4occc4c3)cc1)N(C[C@@H]1CCN(C(=O)c3nccs3)C1)C2=O` [compound 957, (R)-methyl 6-(4-(benzofuran-5-yl)phenyl)-8-oxo-7-((1-(thiazole-2-carbonyl)pyrrolidin-3-yl)methyl)-2,5,7-triazaspiro[3.4]oct-5-ene-2-carboxylate]: the IC50 (in the assay with A2780 ovarian cells [1]; in assay [2]; in the assay on A2780 ovarian cells [4]) was greater than 10 µM in each case. The inhibition at 10 µM in assay [2] was 13%.

`COC(=O)N1CC[C@@H](CN2C(=O)C3(CN(C(=O)OC)C3)N=C2c2ccc(-c3ccc4cccnc4c3)cc2)C1` [compound 963, (S)-methyl 7-((1-(methoxycarbonyl)pyrrolidin-3-yl)methyl)-8-oxo-6-(4-(quinolin-7-yl)phenyl)-2,5,7-triazaspiro[3.4]oct-5-ene-2-carboxylate]: the values for the IC50 (in the assay on A2780 ovarian cells [1]; in assay [2]; in the assay with A2780 ovarian cells [4]) were greater than 10 µM, roughly 10.2 µM and greater than 10 µM, respectively. For the same molecule, the inhibition at 10 µM in assay [2] is 62%.
